Experimental data as given in patent publication US10335365B2, “Bladder cancer specific ligand peptides” (The Regents of the University of California, priority 2009, dated 2019).
Entries after “also recorded” stand apart in the source; their conditions may differ. Positions of bridges follow the written chain, without caps; N, C: chain ends. Non-standard residues stand in square brackets, D forms with d. No end group written: not given here.

Legend:
K9TCC cells = test: Whole cell binding assay of Example 2, canine TCC cells; details: PLZ4 beads, 10^6 cells/ml
Protocol: (§1) This experiment was repeated 3 times for cell lines. […] 5637 human bladder cancer cell line; b. […] The average diameter of the beads is 90 μm. […] This experiment was repeated for 3 times. (200×)
(§2) To determine the binding of PLZ4 to canine TCC cell lines, whole cell binding assay was performed. PLZ4 was synthesized on TentaGel S NH2 resin beads (Rapp Polymere Gmbh, Germany) (Pegram, et al., J Clin Oncol (1998) 16:2659-2671), and incubated with single suspensions of five different canine carcinoma cell lines including K9TCC-PU, K9TCC-PU-AxA, K9TCC-PU-In, K9TCC-PU-AxC, and K9TCC-PU-Nk (kindly provided by Deborah Knapp at Purdue University, West Lafayette, Ind., USA) at 10^6 cells/ml. The negative control was normal urothelial cells obtained from dogs that were euthanized due to non-bladder-related disorders. Human bladder cancer cell line, 5637 were served as the positive control. If PLZ4 bound to cells in suspension, then the bead surface was covered with cells. Over 95% of the bead surface was covered with 5637 and K9TCC cells (FIG. 7A-a and b, respectively).

[1] = system: cancer cells from canine bladder TCC clinical specimen; test: Binding to canine bladder TCC clinical specimen cells
[2] = system: K9TCC, K9TCC-PU-In and K9TCC-PU-Nk cells; test: WST-8 cell proliferation assay; type: cell-based, canine; details: 48 hours, various concentrations, compared with PBS control
Protocol: FIG. 8A-B. Binding affinity and biological effects of PLZ4 against canine TCC cell lines. A. Binding affinity of PLZ4 against K9TCC-PU and K9TCC-PU-In. Twenty thousands of K9TCC-PU and K9TCC-PU-In were seeded in 96 well plates. After culture for 24 hours, cells were fixed and incubated with different concentrations of PLZ4-biotin for 1.5 hours following avidin-HRP for another 1 hour. Cells treated with avidin-HRP only were served as background control. The color was developed using TMB substrate and read by ELISA readers. The experiment was performed in triplicates and repeated for 3 times. The mean value of the 3 experiments were shown. B. Biological effects of PLZ4 on canine TCC cell lines. Ten thousand K9TCC-PU-In and K9TCC-PU cells were seeded in the 96 well plates and treated with increasing concentrations of PLZ4 or PBS for 2 days. The cell proliferation assay was assessed by WST-8 assay per manufacturer's protocol. Cells treated with PBS were used as 100% control. Each group was performed in triplicate, repeated for 3 times. Mean values at each concentration are presented.
Ligand binding on the cell surface molecules may initiate cell signaling and exert biological effects on cells. The effect of PLZ4 on cell viability and proliferation was determined, as it may have potential clinical applications. […]

normal urothelial cells = test: Whole cell bead binding assay, normal urothelial cells; design: species or system human; details: peptide on OBOC beads
Protocol: Four bladder cancer cell lines including 5637 (HTB-9), SCaBER, TCCSUP (HTB-5), and T24 (HTB-4) were purchased from the American Type Culture Collection (Manassas, Va.). The isolation, characterization and maintenance of normal urothelial cells was previously described in detail (Bagai, et al., J Biol Chem, (2002) 277: 23828-23837). Normal peripheral blood mononuclear cells were prepared by using the Ficoll-Paque gradient method from peripheral blood of healthy donors. Bladder cancer tissue obtained from cystectomy was cut into pieces, digested with collagenase at 37° C. for 1-2 hours per the manufacturer's protocol, and filtered through a 40-μm strainer to make single cell suspension. Tumor cells were then isolated with Ficoll-Paque gradient method (800 g, 30 min at 4° C.). Informed consent was obtained from each patient or healthy donor before specimens were collected.
The beads were washed extensively with double-distilled water and phosphate-buffered saline (PBS) before screening. Bladder cancer cells and normal urothelial cells were detached from culture dishes with trypsin/EDTA or a Detach kit (PromoCell, Heidelberg, Germany), washed with their corresponding culture medium, resuspended at 10^6 cells/ml and incubated with OBOC beads in Petri dishes in a humidified CO2 incubator at 37° C. with shaking (60 rpm). […]

[3] = system: cells from the normal specimen of the same bladder; test: Whole cell bead binding assay, cells from normal specimen of the same bladder; design: species or system human; details: beads coated with PLZ4; same cystectomy specimen
Protocol: The beads were washed extensively with double-distilled water and phosphate-buffered saline (PBS) before screening. Bladder cancer cells and normal urothelial cells were detached from culture dishes with trypsin/EDTA or a Detach kit (PromoCell, Heidelberg, Germany), washed with their corresponding culture medium, resuspended at 10^6 cells/ml and incubated with OBOC beads in Petri dishes in a humidified CO2 incubator at 37° C. with shaking (60 rpm). Beads bound by cells appeared as rosettes with a central bead covered by a layer(s) of cells under a microscope. The positive beads were picked with a pipette under inverted microscope, treated with Quanidine HCl (8M, 20 min) to remove cells and proteins on beads surface, and underwent a second round of incubation with the same cells to confirm the binding. Only those beads with cell bindings at both rounds were sent for the amino acid sequencing as previously described (Peng, et al., Nat Chem Biol, (2006) 2: 381-389).
The cell surface molecules on established cell lines in culture may not be the same as those molecules on primary bladder cancer cells. It was assessed if PLZ4 could bind to bladder cancer cells from patients. Beads coated with PLZ4 could bind to primary bladder cancer cells from patients (FIGS. 3A and B). […] In one patient, both normal tissue and bladder cancer tissue from the same cystectomy specimen were available.

[4] = system: Human bladder cancer cell line 5637; test: Whole cell binding assay of Example 2, 5637 positive control; details: PLZ4 beads, 10^6 cells/ml
Protocol: as §1, §2

[5] = system: vascular endothelial cells; test: Binding to vascular endothelial cells
[6] = biological target: T1, K562 cells transfected with a503 integrin (Homo sapiens, UniProt P05106+P06756); test: Bead binding to K562 cells transfected with integrin; details: OBOC beads bearing PLZ4
T1 construct: expressed in transfected cells; host or cells: K562
Protocol: Here, OBOC beads bearing PLZ4 peptides on the surface were incubated with K562 cells transfected with various integrins. K562 cells express endogenous a501 integrin. […] Several other ligands obtained from the initial screening also contain the DGR motif. […] To identify which amino acids are involved in determining cell binding and binding specificity, “alanine walk” was performed combined with the rainbow bead coding methods (Luo, et al., J Comb Chem, (2008) 10: 599-604). The amino acids aspartic acid (D, the X2 position), arginine (R, X4) and phenylalanine (F, X7) are important for cell binding. Replacement of any of these amino acids with alanine completely abolished the binding of the peptides to 5637 cells (FIG. 6B). […] Methionine at the X5 position could be replaced to many other amino acids without compromising the binding affinity. Based on this analysis, the three amino acids (D, G and R) at the N-terminus together with the two amino acids (G and F) at the C-terminus determine the binding specificity. Therefore, the binding pocket may be in the clover shape: one for the N-terminal three amino acids, one for the C-terminal two amino acids and a middle pocket. So w the depth of the middle binding pocket by adding different numbers of glycine residue to the X5 position. […]

T1 sequence (P06756 31-889 limits assumed): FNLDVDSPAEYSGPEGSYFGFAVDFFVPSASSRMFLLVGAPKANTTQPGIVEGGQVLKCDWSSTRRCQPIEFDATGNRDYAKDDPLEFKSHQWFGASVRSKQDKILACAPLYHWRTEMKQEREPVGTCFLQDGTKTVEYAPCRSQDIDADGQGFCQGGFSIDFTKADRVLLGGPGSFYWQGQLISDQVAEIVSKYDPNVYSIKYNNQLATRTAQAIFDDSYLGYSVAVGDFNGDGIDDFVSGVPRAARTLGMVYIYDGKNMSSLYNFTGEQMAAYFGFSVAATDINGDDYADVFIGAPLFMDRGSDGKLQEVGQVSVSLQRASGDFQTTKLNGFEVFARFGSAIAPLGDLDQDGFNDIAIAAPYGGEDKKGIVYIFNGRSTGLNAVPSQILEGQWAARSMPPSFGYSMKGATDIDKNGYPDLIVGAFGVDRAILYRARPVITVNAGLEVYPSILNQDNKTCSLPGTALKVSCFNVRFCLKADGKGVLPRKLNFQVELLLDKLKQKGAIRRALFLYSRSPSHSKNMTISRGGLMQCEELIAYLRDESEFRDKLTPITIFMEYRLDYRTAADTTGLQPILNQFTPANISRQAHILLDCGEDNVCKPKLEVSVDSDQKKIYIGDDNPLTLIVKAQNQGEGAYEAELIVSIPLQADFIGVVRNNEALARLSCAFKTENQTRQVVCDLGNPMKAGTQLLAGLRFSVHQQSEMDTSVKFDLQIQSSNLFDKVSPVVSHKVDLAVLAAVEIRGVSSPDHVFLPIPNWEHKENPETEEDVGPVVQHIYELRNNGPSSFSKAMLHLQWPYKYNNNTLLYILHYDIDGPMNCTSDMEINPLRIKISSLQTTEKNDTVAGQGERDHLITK
T1 sequence (P06756 891-1048 partner limits assumed): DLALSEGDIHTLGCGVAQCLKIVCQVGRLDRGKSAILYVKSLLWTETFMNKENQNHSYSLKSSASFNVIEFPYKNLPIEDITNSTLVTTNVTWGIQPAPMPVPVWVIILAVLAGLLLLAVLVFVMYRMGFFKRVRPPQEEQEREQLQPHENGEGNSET
T1 sequence (P05106 27-788): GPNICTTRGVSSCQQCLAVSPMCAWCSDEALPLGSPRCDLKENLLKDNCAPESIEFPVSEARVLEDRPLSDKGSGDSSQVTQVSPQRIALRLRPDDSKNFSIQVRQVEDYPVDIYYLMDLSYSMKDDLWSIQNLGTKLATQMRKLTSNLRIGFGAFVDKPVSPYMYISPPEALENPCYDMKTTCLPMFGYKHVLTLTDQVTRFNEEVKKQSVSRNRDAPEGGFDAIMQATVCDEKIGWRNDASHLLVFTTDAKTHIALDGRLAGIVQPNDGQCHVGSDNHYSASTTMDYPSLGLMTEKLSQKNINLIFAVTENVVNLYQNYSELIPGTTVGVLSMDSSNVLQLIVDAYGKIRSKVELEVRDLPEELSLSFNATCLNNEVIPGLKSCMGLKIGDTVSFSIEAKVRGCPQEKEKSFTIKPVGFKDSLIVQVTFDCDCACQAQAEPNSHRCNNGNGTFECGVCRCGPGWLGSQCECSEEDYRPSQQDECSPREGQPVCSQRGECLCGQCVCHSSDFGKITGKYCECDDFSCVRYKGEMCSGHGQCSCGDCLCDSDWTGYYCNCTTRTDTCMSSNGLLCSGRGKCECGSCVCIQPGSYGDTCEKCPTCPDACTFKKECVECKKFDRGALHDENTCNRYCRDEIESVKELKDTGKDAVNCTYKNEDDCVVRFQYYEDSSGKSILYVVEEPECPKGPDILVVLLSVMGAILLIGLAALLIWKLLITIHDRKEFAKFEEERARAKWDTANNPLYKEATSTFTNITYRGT

cQDGRMGFc ([dC]QDGRMGF[dC]; disulfide 1-9 (inferred)) [PLZ4, bladder cancer-specific ligand peptide]
bead surface covered with cells (K9TCC cells): Over 95% | binding to primary canine bladder cancer cells from a clinical specimen [1]: could bind to primary canine bladder cancer cells; also recorded: could bind to cancer cells from one canine bladder TCC clinical specimen | cell proliferation/viability [2]: no significant changes in cell proliferation/viability | binding to normal urothelial cells (normal urothelial cells): did not bind | binding to cells from the normal specimen of the same bladder [3]: not to the cells from the normal specimen | bead surface covered with cells [4]: Over 95% | binding to vascular endothelial cells [5]: did not bind | binding to K562 cells transfected with a503 integrin [6]: bound
